Several values for one entry are separate records, joined by “and”; a condition that tells them apart may be missing. Equal entries are not always repeated.

By melting point is commonly meant the temperature of the solid-liquid transition.

For the first series, the system named is rat uterine decidualization. In words: Rat decidualization assay. Format: in vivo. The note with it: decrease in EC50 progesterone induced decidual response in rat, p.o.; individual studies. As for the experimental part:
1. Rat Decidualization Assay
The materials and methods used in tins assay are as follows.
The animals are treated once daily for seven days.
Uteri are removed and trimmed of fat.
Decidual response: [(D-C)/C]×100%
Take `CC#C[C@]1(O)CC[C@H]2[C@@H]3CCC4=CC(=O)CCC4=C3[C@@H](c3ccc(N(C)C)cc3)C[C@@]21C` [RU486]: the IC50 is 0.21 mg/kg, p.o. and 0.14 mg/kg, p.o.

The series is the same for the next values; noted with them: rat decidual response, s.c.; average of dose-response curves.
In the case of `C#C[C@]1(O)CC[C@H]2[C@@H]3CCC4=CC(=O)CC[C@@H]4[C@H]3C(=C)C[C@@]21CC` [3-Ketodesogestrel], the “Estimated average EC50” value is listed as 0.10 mg/kg, s.c.

System in the next series: not given
Assay: not given
Conditions: not given
`O=C1Nc2ccc(-c3cccc(O)c3)cc2C12CCCCC2` [Example 33, 5′-(3-Hydroxyphenyl)spiro[cyclohexane-1,3′-[3H]indol]-2′(1′H)-one]: the melting point fell in the range of 213 to 216 °C.

For the compound `N#CCc1cccc(-c2ccc3c(c2)C2(CCCCC2)C(=O)N3)c1` [Example 81, 3-(1′,2′-Dihydro-2′-oxospiro[cyclohexane-1,3′-[3H]indol]-5′-yl)phenylacetonitrile], the melting point was in the range of 190 to 193 °C.

The compound `CCOC(OCC)N1C(=O)C2(CCCCC2)c2cc(-c3cc(F)cc(C#N)c3)ccc21` [Example 50, 3-(1′-Diethoxymethyl-1′,2′-dihydro-2′-oxospiro[cyclohexane-1,3′-[3H]indol]-5′-yl)-5-fluorobenzonitrile] registered a melting point of 146 °C.

On to `O=C1Nc2ccc(-c3ccc(C=NO)c(F)c3)cc2C12CCCCC2` [Example 64, 2-fluoro-4-(1′,2′-Dihydro-2′-oxospiro[cyclohexane-1,3′-[3H]indol]-5′-yl) benzaldehyde oxime], for which the melting point fell in the range of 240 to 242 °C.

For `COc1cccc(-c2ccc3c(c2)C(C)(C)C(=O)N3)c1` [Example 3, 5-(3-Methoxy-phenyl)-3,3-dimethyl-1,3-dihydro-indol-2-one], the melting point is 157 to 158 °C.

`O=C1Nc2ccc(-c3cccc(C=NO)c3F)cc2C12CCCCC2` [Example 68, 2-fluoro-3-(1′,2′-Dihydro-2′-oxospiro[cyclohexane-1,3′-[3H]indol]-5′-yl) benzaldehyde oxime]: the melting point was 213 to 217 °C.

With `CC1(C)C(=O)Nc2ccc(-c3cc(F)cc(C#N)c3)cc21` [Example 82, 3-(3,3-Dimethyl-2-oxo-2,3-dihydro-1H-indol-5-yl)-5-fluoro-benzonitrile], the melting point fell in the range of 231.2 to 232.3 °C.

As for `O=C1Nc2ccccc2C12CCCC(c1cccc(F)c1)C2` (centres unmarked) [Example 21, 5-(3-Fluorophenyl)spiro[cyclohexane-1,3′-[3H]indol]-2′(1′H)-one], the melting point is 171 to 172 °C.

For the compound `N#Cc1cncc(-c2ccc3c(c2)C2(CCCCC2)C(=O)N3)c1` [Example 17, 5-(1′,2′-Dihydro-2′-oxospiro[cyclohexane-1,3′-[3H]indol]-5′-yl)-3-pyridine carbonitrile], the melting point was 232 to 234 °C.

The values are drawn from patent US7084168B2, “Indoline derivatives” (Wyeth, priority 1999, dated 2006).
